Each structure is given as a SMILES string. Read-outs that look alike come from different tables or passages of the source. A value given as a limit tells only on which side of the number the result lay.

The results in this text go back to patent US20180162844A1, “CYCLOPROPANE DERIVATIVE AND DRUG CONTAINING SAME” (EA PHARMA CO., LTD., priority 2015, published 2018).

The target of this assay is T1, human TRPA1 (Homo sapiens, UniProt O75762).
T1 construct: full-length human TRPA1 gene was amplified; expressed in transfected cells; host or cells: Human embryonic kidney-derived 293T cells, transient transfection with pcDNA3.1/zeo(+) human TRPA1 expression plasmid
T1 sequence (O75762 whole entry): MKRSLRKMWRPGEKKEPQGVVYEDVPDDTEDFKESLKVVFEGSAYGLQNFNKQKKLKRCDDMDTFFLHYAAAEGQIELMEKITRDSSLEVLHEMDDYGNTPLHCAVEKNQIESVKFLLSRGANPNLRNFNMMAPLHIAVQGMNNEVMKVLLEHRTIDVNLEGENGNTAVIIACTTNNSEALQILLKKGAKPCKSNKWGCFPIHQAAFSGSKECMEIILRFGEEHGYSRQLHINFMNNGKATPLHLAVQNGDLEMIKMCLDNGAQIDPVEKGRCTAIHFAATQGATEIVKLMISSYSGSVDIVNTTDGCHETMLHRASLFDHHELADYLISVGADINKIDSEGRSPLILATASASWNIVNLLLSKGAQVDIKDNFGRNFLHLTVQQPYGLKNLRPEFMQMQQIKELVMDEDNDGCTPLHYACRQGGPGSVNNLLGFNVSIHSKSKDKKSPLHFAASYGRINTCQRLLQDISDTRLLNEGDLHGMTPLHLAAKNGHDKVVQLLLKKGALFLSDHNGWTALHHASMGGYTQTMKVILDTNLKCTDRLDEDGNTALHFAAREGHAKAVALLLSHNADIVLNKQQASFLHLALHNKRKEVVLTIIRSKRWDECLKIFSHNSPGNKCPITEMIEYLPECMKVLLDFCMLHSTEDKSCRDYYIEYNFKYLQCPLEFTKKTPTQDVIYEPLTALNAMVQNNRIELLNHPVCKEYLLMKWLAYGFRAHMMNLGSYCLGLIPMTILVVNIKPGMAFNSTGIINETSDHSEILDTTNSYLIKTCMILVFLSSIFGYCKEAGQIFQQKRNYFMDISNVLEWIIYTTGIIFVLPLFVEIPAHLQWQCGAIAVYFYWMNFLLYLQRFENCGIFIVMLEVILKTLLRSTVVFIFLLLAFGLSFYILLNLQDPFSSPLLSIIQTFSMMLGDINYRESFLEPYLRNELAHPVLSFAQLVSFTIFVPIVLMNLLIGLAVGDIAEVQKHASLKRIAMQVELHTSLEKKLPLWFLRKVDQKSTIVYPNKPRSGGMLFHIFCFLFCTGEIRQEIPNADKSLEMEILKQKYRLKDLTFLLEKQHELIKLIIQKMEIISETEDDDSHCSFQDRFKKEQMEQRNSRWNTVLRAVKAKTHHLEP
The assay can be described thus: Measurement of TRPA1 antagonist activity (intracellular calcium increase, allylisothiocyanate stimulation, 293T cells transfected with human TRPA1 expression plasmid). The assay is classed as cell-based. The following applies: 293T cells expressing human TRPA1, allylisothiocyanate stimulation, FLIPR Calcium4, test substance added 10 min before AITC, read-out: hTRPA1 IC50. The method, then: Experimental Example 1: Measurement of TRPA1 antagonist Activity
Human TRPA1 Expression Plasmid
Using cDNA encoding human TRPA1 (GenBank accession No. NM_007332) (manufactured by Kazusa DNA Research Institute, item No.: FHC07217) as a template, primer 1 (SEQ ID NO: 1) and primer 2 (SEQ ID NO: 2), PCR by PfuUltra High-Fidelity DNA Polymerase (Stratagene) was performed, and full-length human TRPA1 gene was amplified.
A recognition site (underlined) of restriction enzyme HindIII was added to the 5′ end of human TRPA1 gene, and XbaI site (underlined) was added to the 3′ end of human TRPA1 gene, and GTT of the template sequence was changed to termination codon TAG (bold). The obtained double stranded DNA was enzyme-digested with HindIII and XbaI, and introduced into a multicloning site of expression plasmid pcDNA3.1/zeo(+) (manufactured by Invitrogen) to give a human TRPA1 expression plasmid.
Human embryonic kidney-derived 293T cells were cultured in Dulbecco's Modified Eagle Medium containing 10% fetal bovine serum, 10 unit penicillin, and 10 μg streptomycin. One day before assay, 3×10^6 of 293T cells were plated on a petri dish having a diameter of 10 cm, and cultured in a CO2 incubator for 24 hr. OPTI-MEM I Reduced Serum Media (Invitrogen). (600 μL), Mirus TransIT-293 (Mirus Bio) (18 μL), and human TRPA1 expression plasmid (6 μg) were mixed, the total amount of the mixture was added to the cells on the petri dish to allow for gene transfer. The cells were recovered about for 8 hr later, plated on a poly-D-lysine coated 384 well black/clear bottom plate at 12,000 cells/well, and cultured overnight.
Measurement of Intracellular Calcium Increase
The medium was removed from the 384 well plate, calcium indicator (Molecular Device, trade name: FLIPR Calcium4 Assay Kit) dissolved in HBSS (Thermo Fisher Scientific) (pH 7.2) containing 20 mM HEPES was added (38 μL/well), and the cells were stained in a CO2 incubator for 1 hr. The 384 well plate was stood at room temperature for not less than 15 min, set on FDSS7000 (Hamamatsu Photonics K.K.), and a test substance solution was added at 10 μL/well. After 10 min, allylisothiocyanate solution (12 μL/well) was added, the relative fluorescence intensity was measured for 5 min after addition of the allylisothiocyanate solution.
Preparation of Test Substance Solution and Allylisothiocyanate Solution
A test substance solution was prepared to have a composition of HBSS (Thermo Fisher Scientific) (pH 7.2) containing 0.48% dimethyl sulfoxide, a test substance at 4.8-fold concentration of the evaluation concentration, 0.1% bovine serum albumin and 20 mM HEPES. An allylisothiocyanate solution was prepared to have a composition of HBSS (Thermo Fisher Scientific) (pH 7.2) containing 0.1% dimethyl sulfoxide, 100 μM allylisothiocyanate, 0.1% bovine serum albumin and 20 mM HEPES.
Calculation of Antagonist Activity
The activity rate of a test substance at each concentration was calculated, wherein the relative fluorescence intensity change of a well free of a test substance and containing allylisothiocyanate is 100% activity rate, and the relative fluorescence intensity change of a well free of a test substance and allylisothiocyanate is 0% activity rate. The inhibitory rate of a test substance at each concentration was calculated by subtracting the activity rate of the test substance from 100% activity rate, and the concentration of a test substance showing 50% inhibitory rate was calculated as IC50 from the sigmoid approximate curve by XLFit (idbs).
A general note: Calcium assays in cells follow changes in intracellular calcium, usually with a dye or a luminescent sensor.

The mark [1] stands for this setting: Comparative Examples (Table 8-2).

Turning to `O=C(NCc1cc(-c2ccc(C(F)(F)F)cc2)ncn1)C1(NS(=O)(=O)c2cc3ccccc3o2)CC1` [Example 21, 1-(benzofuran-2-ylsulfonylamino)-N-[[6-[4-(trifluoromethyl)phenyl]pyrimidin-4-yl]methyl]cyclopropanecarboxamide], the half-maximal inhibitory concentration (IC50) (Examples (Table 8-1)) turned out to be 77 nM.

In the case of `O=C(NCc1cc(-c2ccc(C(F)(F)F)nc2)ncn1)C1(NS(=O)(=O)c2cc3cc(F)ccc3o2)CC1` [Example 12, 1-[(5-fluorobenzofuran-2-yl)sulfonylamino]-N-[[6-[6-(trifluoromethyl)-3-pyridyl]pyrimidin-4-yl]methyl]cyclopropanecarboxamide], the IC50 (Examples (Table 8-1)) turned out to be 30 nM. Regarding `O=C(NCc1cc(-c2ccc(C(F)(F)F)cn2)ccn1)C1(NS(=O)(=O)c2cc3cc(F)ccc3o2)CC1` [Example 4, 1-[(5-fluorobenzofuran-2-yl)sulfonylamino]-N-[[4-[5-(trifluoromethyl)-2-pyridyl]-2-pyridyl]methyl]cyclopropane-carboxamide], the IC50 (Examples (Table 8-1)) stood at 22 nM.

As to `O=C(NCc1cc(-c2ccc(C(F)(F)F)cn2)ncn1)C1(NS(=O)(=O)c2cc3cc(F)ccc3o2)CC1` [Example 13, 1-[(5-fluorobenzofuran-2-yl)sulfonylamino]-N-[[6-[5-(trifluoromethyl)-2-pyridyl]pyrimidin-4-yl]methyl]cyclopropanecarboxamide], under “Examples (Table 8-1)”, the concentration for half-maximal inhibition (IC50) worked out at 110 nM. As to `O=C(NCc1ccnc(-c2cnc(C(F)(F)F)nc2)c1)C1(NS(=O)(=O)c2cc3cc(F)ccc3o2)CC1` [Example 2, 1-[(5-fluorobenzofuran-2-yl)sulfonylamino]-N-[[2-[2-(trifluoromethyl)pyrimidin-5-yl]-4-pyridyl]methyl]cyclopropane-carboxamide], the IC50 (Examples (Table 8-1)) was determined as 120 nM.

For the molecule `O=C(NCc1cc(-c2ccc(C(F)(F)F)cc2O)ncn1)C1(NS(=O)(=O)c2cc3cc(F)ccc3o2)CC1` [Example 20, 1-[(5-fluorobenzofuran-2-yl)sulfonylamino]-N-[[6-[2-hydroxy-4-(trifluoromethyl)-phenyl]pyrimidin-4-yl]methyl]cyclopropanecarboxamide], the IC50 (Examples (Table 8-1)) is 23 nM. As for `O=C(NCc1cc(-c2ccc(C(F)(F)F)cc2)ncn1)C1(NS(=O)(=O)c2cc3cc(F)ccc3o2)CC1` [Example 1, 1-[(5-fluorobenzofuran-2-yl)sulfonylamino]-N-[[6-[4-(trifluoromethyl)phenyl]pyrimidin-4-yl]methyl]cyclopropanecarboxamide], the IC50 (Examples (Table 8-1)) worked out at 33 nM. Turning to `O=C(NCc1cnnc(-c2ccc(C(F)(F)F)nc2)c1)C1(NS(=O)(=O)c2cc3cc(F)ccc3o2)CC1` [Example 16, 1-[(5-fluorobenzofuran-2-yl)sulfonylamino]-N-[[6-[6-(trifluoromethyl)-3-pyridyl]pyridazin-4-yl]methyl]cyclopropanecarboxamide], the concentration for half-maximal inhibition (IC50) (Examples (Table 8-1)) came out at 990 nM. For `O=C(NCc1cc(-c2ccc(C(F)(F)F)cc2)ncn1)C1(NS(=O)(=O)c2cc3cnccc3o2)CC1` [Example 26, 1-(furo[3,2-c]pyridin-2-ylsulfonylamino)-N-[[6-[4-(trifluoromethyl)phenyl]pyrimidin-4-yl]methyl]cyclopropanecarboxamide], the IC50 (Examples (Table 8-1)) stood at 45 nM. For the molecule `O=C(NCc1cc(-c2ccc(C(F)(F)F)nn2)ccn1)C1(NS(=O)(=O)c2cc3cc(F)ccc3o2)CC1` [Example 8, 1-[(5-fluorobenzofuran-2-yl)sulfonylamino]-N-[[4-[6-(trifluoromethyl)pyridazin-3-yl]-2-pyridyl]methyl]cyclopropane-carboxamide], the IC50 (Examples (Table 8-1)) was 74 nM. The same measure, in the same setting: in the case of `O=C(NCc1cncc(-c2ccc(C(F)(F)F)cn2)c1)C1(NS(=O)(=O)c2cc3cc(F)ccc3o2)CC1` [Example 10, 1-[(5-fluorobenzofuran-2-yl)sulfonylamino]-N-[[5-[5-(trifluoromethyl)-2-pyridyl]-3-pyridyl]methyl]cyclopropane-carboxamide] it was 110 nM. Turning to `O=C(NCc1cc(-c2cnc(C(F)(F)F)nc2)ccn1)C1(NS(=O)(=O)c2cc3cc(F)ccc3o2)CC1` [Example 5, 1-[(5-fluorobenzofuran-2-yl)sulfonylamino]-N-[[4-[2-(trifluoromethyl)pyrimidin-5-yl]-2-pyridyl]methyl]cyclopropane-carboxamide], the IC50 (Examples (Table 8-1)) turned out to be 260 nM. `O=C(NCc1cc(-c2cnc(C(F)(F)F)cn2)ccn1)C1(NS(=O)(=O)c2cc3cc(F)ccc3o2)CC1` [Example 7, 1-[(5-fluorobenzofuran-2-yl)sulfonylamino]-N-[[4-[5-(trifluoromethyl)pyrazin-2-yl]-2-pyridyl]methyl]cyclopropane-carboxamide]: the IC50 (Examples (Table 8-1)) turned out to be 170 nM. Take `O=C(NCc1cc(-c2ncc(C(F)(F)F)cn2)ccn1)C1(NS(=O)(=O)c2cc3cc(F)ccc3o2)CC1` [Example 6, 1-[(5-fluorobenzofuran-2-yl)sulfonylamino]-N-[[4-[5-(trifluoromethyl)pyrimidin-2-yl]-2-pyridyl]methyl]cyclopropane-carboxamide]: the IC50 (Examples (Table 8-1)) was found to be 230 nM. Regarding `O=C(NCc1ccnc(-c2ccc(C(F)(F)F)cc2O)c1)C1(NS(=O)(=O)c2cc3cc(F)ccc3o2)CC1` [Example 3, 1-[(5-fluorobenzofuran-2-yl)sulfonylamino]-N-[[2-[2-hydroxy-4-(trifluoromethyl)phenyl]-4-pyridyl]methyl]cyclopropane-carboxamide], under “Examples (Table 8-1)”, the IC50 was 72 nM. As to `CN(C)c1nc(CNC(=O)C2(NS(=O)(=O)c3cc4ccccc4o3)CC2)cc(-c2ccc(C(F)(F)F)cc2)n1` [Example 23, 1-(benzofuran-2-ylsulfonylamino)-N-[[2-(dimethylamino)-6-[4-(trifluoromethyl)phenyl]pyrimidin-4-yl]methyl]cyclopropanecarboxamide], the half-inhibitory concentration (IC50) (Examples (Table 8-1)) worked out at 100 nM. In the case of `O=C(NCc1cc(-c2ccc(C(F)(F)F)cc2)nc(N2CCCC2)c1)C1(NS(=O)(=O)c2cc3ccccc3o2)CC1` [Example 28, 1-(benzofuran-2-ylsulfonylamino)-N-[[2-pyrrolidin-1-yl-6-[4-(trifluoromethyl)phenyl]-4-pyridyl]methyl]-cyclopropanecarboxamide], the IC50 (Examples (Table 8-1)) was determined as 260 nM. Regarding `O=C(NCc1cc(-c2ccc(C(F)(F)F)cc2)nc(N2CCCC2)c1)C1(NS(=O)(=O)c2ccc(F)cc2)CC1` [Comparative Example 2, 1-[(4-fluorophenyl)sulfonylamino]-N-[[2-pyrrolidin-1-yl-6-[4-(trifluoromethyl)phenyl]-4-pyridyl]methyl]cyclopropanecarboxamide, reference compound], the IC50 under setting [1] is more than 1000 nM. Take `O=C(NCc1cc(-c2ccc(C(F)(F)F)cc2)nc(N2CCCC2)c1)C1(NS(=O)(=O)c2ccco2)CC1` [Comparative Example 3, 1-(2-furylsulfonylamino)-N-[[2-pyrrolidin-1-yl-6-[4-(trifluoromethyl)phenyl]-4-pyridyl]methyl]cyclopropanecarboxamide, reference compound]: the half-inhibitory concentration (IC50) under setting [1] is more than 1000 nM. With `O=C(NCc1cncc(-c2ccc(C(F)(F)F)nc2)c1)C1(NS(=O)(=O)c2cc3cc(F)ccc3o2)CC1` [Example 9, 1-[(5-fluorobenzofuran-2-yl)sulfonylamino]-N-[[5-[6-(trifluoromethyl)-3-pyridyl]-3-pyridyl]methyl]cyclopropane-carboxamide], the IC50 (Examples (Table 8-1)) was determined as 170 nM.

Take `O=C(NCc1cc(-c2ccc(C(F)(F)F)cn2)ccn1)C1(NS(=O)(=O)c2cc3ccccc3o2)CC1` [Example 22, 1-(benzofuran-2-ylsulfonylamino)-N-[[4-[5-(trifluoromethyl)-2-pyridyl]-2-pyridyl]methyl]-cyclopropanecarboxamide]: the IC50 (Examples (Table 8-1)) stood at 130 nM.

The term IC50 denotes the midpoint of a concentration-inhibition curve.
